Laboratory results published in the supplement of paper PMC8612539.

Test system: Escherichia coli
Assay: minimum inhibitory concentration (MIC)
Description: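 Broth microdilution MIC (Sensititre BOPO7F bovine plate, CLSI methods) of 19 antimicrobials against field isolates of P. multocida, M. haemolytica, H. somni (deep nasopharyngeal swabs) and E. coli, Enterococcus spp. (rectal swabs) from weaned dairy heifers. Incubation 16-24 h at 35 C. MIC is the lowest concentration preventing visible growth. Values with <= or > lie at the tested range limits. Trimethoprim-sulfamethoxazole is given as the trimethoprim component of a 1:19 mixture.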

COc1cc(Cc2cnc(N)nc2N)cc(OC)c1OC.Cc1cc(NS(=O)(=O)c2ccc(N)cc2)no1 [trimethoprim-sulfamethoxazole]
Conditions	minimum inhibitory concentration [µg/mL]
isolate (source animal id): 1	≤ 2
isolate (source animal id): 2	> 2
isolate (source animal id): 3	≤ 2
isolate (source animal id): 4	≤ 2
isolate (source animal id): 5	> 2
isolate (source animal id): 6	> 2
isolate (source animal id): 7	> 2
isolate (source animal id): 8	≤ 2
isolate (source animal id): 9	> 2
isolate (source animal id): 10	> 2
isolate (source animal id): 11	≤ 2
isolate (source animal id): 12	> 2
isolate (source animal id): 13	≤ 2
isolate (source animal id): 14	> 2
isolate (source animal id): 15	≤ 2
isolate (source animal id): 16	≤ 2
isolate (source animal id): 17	> 2
isolate (source animal id): 18	≤ 2
isolate (source animal id): 19	≤ 2
isolate (source animal id): 20	> 2
isolate (source animal id): 21	≤ 2
isolate (source animal id): 22	≤ 2
isolate (source animal id): 23	≤ 2
isolate (source animal id): 24	≤ 2
isolate (source animal id): 25	> 2
isolate (source animal id): 26	≤ 2
isolate (source animal id): 27	> 2
isolate (source animal id): 28	≤ 2
isolate (source animal id): 29	> 2
isolate (source animal id): 30	> 2
isolate (source animal id): 31	> 2
isolate (source animal id): 32	> 2
isolate (source animal id): 33	> 2
isolate (source animal id): 34	≤ 2
isolate (source animal id): 35	> 2
isolate (source animal id): 36	> 2
isolate (source animal id): 37	> 2
isolate (source animal id): 38	> 2
isolate (source animal id): 39	> 2
isolate (source animal id): 40	≤ 2
isolate (source animal id): 41	> 2
isolate (source animal id): 42	> 2
isolate (source animal id): 43	> 2
isolate (source animal id): 44	≤ 2
isolate (source animal id): 45	> 2
isolate (source animal id): 46	≤ 2
isolate (source animal id): 47	> 2
isolate (source animal id): 48	> 2
isolate (source animal id): 49	> 2
isolate (source animal id): 50	> 2
isolate (source animal id): 51	> 2
isolate (source animal id): 52	≤ 2
isolate (source animal id): 53	> 2
isolate (source animal id): 54	≤ 2
isolate (source animal id): 55	≤ 2
isolate (source animal id): 56	≤ 2
isolate (source animal id): 57	> 2
isolate (source animal id): 58	≤ 2
isolate (source animal id): 59	≤ 2
isolate (source animal id): 60	≤ 2
isolate (source animal id): 61	> 2
isolate (source animal id): 62	≤ 2
isolate (source animal id): 63	≤ 2
isolate (source animal id): 64	≤ 2
isolate (source animal id): 65	> 2
isolate (source animal id): 66	≤ 2
isolate (source animal id): 67	≤ 2
isolate (source animal id): 68	≤ 2
isolate (source animal id): 69	≤ 2
isolate (source animal id): 70	≤ 2
isolate (source animal id): 71	≤ 2
isolate (source animal id): 72	≤ 2
isolate (source animal id): 73	≤ 2
isolate (source animal id): 74	≤ 2
isolate (source animal id): 75	≤ 2
isolate (source animal id): 76	> 2
isolate (source animal id): 77	≤ 2
isolate (source animal id): 78	> 2
isolate (source animal id): 79	≤ 2
isolate (source animal id): 80	≤ 2
isolate (source animal id): 81	> 2
isolate (source animal id): 82	≤ 2
isolate (source animal id): 83	≤ 2
isolate (source animal id): 84	≤ 2
isolate (source animal id): 85	≤ 2
isolate (source animal id): 86	> 2
isolate (source animal id): 87	≤ 2
isolate (source animal id): 88	≤ 2
isolate (source animal id): 89	≤ 2
isolate (source animal id): 90	≤ 2
isolate (source animal id): 91	≤ 2
isolate (source animal id): 92	≤ 2
isolate (source animal id): 93	≤ 2
isolate (source animal id): 94	> 2
isolate (source animal id): 95	≤ 2
isolate (source animal id): 96	≤ 2
isolate (source animal id): 97	> 2
isolate (source animal id): 98	≤ 2
isolate (source animal id): 99	≤ 2
isolate (source animal id): 100	≤ 2
isolate (source animal id): 101	> 2
isolate (source animal id): 102	≤ 2
isolate (source animal id): 103	≤ 2
isolate (source animal id): 104	≤ 2
isolate (source animal id): 105	≤ 2
isolate (source animal id): 106	> 2
isolate (source animal id): 107	≤ 2
isolate (source animal id): 108	≤ 2
isolate (source animal id): 109	≤ 2
isolate (source animal id): 110	≤ 2
isolate (source animal id): 111	≤ 2
isolate (source animal id): 112	≤ 2
isolate (source animal id): 113	≤ 2
isolate (source animal id): 114	≤ 2
isolate (source animal id): 115	> 2
isolate (source animal id): 116	≤ 2
isolate (source animal id): 117	≤ 2
isolate (source animal id): 118	≤ 2
isolate (source animal id): 119	> 2
isolate (source animal id): 120	> 2
isolate (source animal id): 121	> 2
isolate (source animal id): 122	> 2
isolate (source animal id): 123	≤ 2
isolate (source animal id): 124	> 2
isolate (source animal id): 125	≤ 2
isolate (source animal id): 126	> 2
isolate (source animal id): 127	> 2
isolate (source animal id): 128	≤ 2
isolate (source animal id): 129	≤ 2
isolate (source animal id): 130	> 2
isolate (source animal id): 131	≤ 2
isolate (source animal id): 132	≤ 2
isolate (source animal id): 133	≤ 2
isolate (source animal id): 134	≤ 2
isolate (source animal id): 135	≤ 2
isolate (source animal id): 136	≤ 2
isolate (source animal id): 137	≤ 2
isolate (source animal id): 138	> 2
isolate (source animal id): 139	> 2
isolate (source animal id): 140	≤ 2
isolate (source animal id): 141	> 2
isolate (source animal id): 142	≤ 2
isolate (source animal id): 143	> 2
isolate (source animal id): 144	≤ 2
isolate (source animal id): 145	> 2
isolate (source animal id): 146	≤ 2
isolate (source animal id): 147	> 2
isolate (source animal id): 148	≤ 2
isolate (source animal id): 149	≤ 2
isolate (source animal id): 150	> 2
isolate (source animal id): 151	≤ 2
isolate (source animal id): 152	≤ 2
isolate (source animal id): 153	≤ 2
isolate (source animal id): 154	≤ 2
isolate (source animal id): 155	≤ 2
isolate (source animal id): 156	> 2
isolate (source animal id): 157	≤ 2
isolate (source animal id): 158	≤ 2
isolate (source animal id): 159	≤ 2
isolate (source animal id): 160	> 2
isolate (source animal id): 161	> 2
isolate (source animal id): 162	≤ 2
isolate (source animal id): 163	≤ 2
isolate (source animal id): 164	≤ 2
isolate (source animal id): 165	≤ 2
isolate (source animal id): 166	≤ 2
isolate (source animal id): 167	≤ 2
isolate (source animal id): 168	≤ 2
isolate (source animal id): 169	≤ 2
isolate (source animal id): 170	≤ 2
isolate (source animal id): 171	≤ 2
isolate (source animal id): 172	≤ 2
isolate (source animal id): 173	≤ 2
isolate (source animal id): 174	≤ 2
isolate (source animal id): 175	≤ 2
isolate (source animal id): 176	≤ 2
isolate (source animal id): 177	≤ 2
isolate (source animal id): 178	≤ 2
isolate (source animal id): 179	≤ 2
isolate (source animal id): 180	≤ 2
isolate (source animal id): 181	≤ 2
isolate (source animal id): 182	≤ 2
isolate (source animal id): 183	≤ 2
isolate (source animal id): 184	≤ 2
isolate (source animal id): 185	≤ 2
isolate (source animal id): 186	≤ 2
isolate (source animal id): 187	≤ 2
isolate (source animal id): 188	> 2
isolate (source animal id): 189	≤ 2
isolate (source animal id): 190	> 2
isolate (source animal id): 191	≤ 2
isolate (source animal id): 192	≤ 2
isolate (source animal id): 193	≤ 2
isolate (source animal id): 194	≤ 2
isolate (source animal id): 195	≤ 2
isolate (source animal id): 196	≤ 2
isolate (source animal id): 197	≤ 2
isolate (source animal id): 198	> 2
isolate (source animal id): 199	≤ 2
isolate (source animal id): 200	≤ 2
isolate (source animal id): 201	≤ 2
isolate (source animal id): 202	≤ 2
isolate (source animal id): 203	≤ 2
isolate (source animal id): 204	≤ 2
isolate (source animal id): 205	≤ 2
isolate (source animal id): 206	≤ 2
isolate (source animal id): 207	≤ 2
isolate (source animal id): 208	≤ 2
isolate (source animal id): 209	≤ 2
isolate (source animal id): 210	≤ 2
isolate (source animal id): 211	≤ 2
isolate (source animal id): 212	≤ 2
isolate (source animal id): 213	≤ 2
isolate (source animal id): 214	≤ 2
isolate (source animal id): 215	≤ 2
isolate (source animal id): 216	> 2
isolate (source animal id): 217	≤ 2
isolate (source animal id): 218	≤ 2
isolate (source animal id): 219	≤ 2
isolate (source animal id): 220	≤ 2
isolate (source animal id): 221	≤ 2
isolate (source animal id): 222	≤ 2
isolate (source animal id): 223	≤ 2
isolate (source animal id): 224	≤ 2
isolate (source animal id): 225	≤ 2
isolate (source animal id): 226	> 2
isolate (source animal id): 227	≤ 2
isolate (source animal id): 228	≤ 2
isolate (source animal id): 229	> 2
isolate (source animal id): 230	≤ 2
isolate (source animal id): 231	≤ 2
isolate (source animal id): 232	≤ 2
isolate (source animal id): 233	≤ 2
isolate (source animal id): 234	≤ 2
isolate (source animal id): 235	≤ 2
isolate (source animal id): 236	≤ 2
isolate (source animal id): 237	≤ 2
isolate (source animal id): 238	≤ 2
isolate (source animal id): 239	≤ 2
isolate (source animal id): 240	≤ 2
isolate (source animal id): 241	≤ 2
isolate (source animal id): 242	≤ 2
isolate (source animal id): 243	≤ 2
isolate (source animal id): 244	≤ 2
isolate (source animal id): 245	≤ 2
isolate (source animal id): 246	≤ 2
isolate (source animal id): 247	≤ 2
isolate (source animal id): 248	≤ 2
isolate (source animal id): 249	≤ 2
isolate (source animal id): 250	≤ 2
isolate (source animal id): 251	≤ 2
isolate (source animal id): 252	≤ 2
isolate (source animal id): 253	≤ 2
isolate (source animal id): 254	≤ 2
isolate (source animal id): 255	≤ 2
isolate (source animal id): 256	≤ 2
isolate (source animal id): 257	≤ 2
isolate (source animal id): 258	≤ 2
isolate (source animal id): 259	> 2
isolate (source animal id): 260	≤ 2
isolate (source animal id): 261	≤ 2
isolate (source animal id): 262	≤ 2
isolate (source animal id): 263	≤ 2
isolate (source animal id): 264	≤ 2
isolate (source animal id): 265	≤ 2
isolate (source animal id): 266	≤ 2
isolate (source animal id): 267	≤ 2
isolate (source animal id): 268	≤ 2
isolate (source animal id): 269	≤ 2
isolate (source animal id): 270	≤ 2
isolate (source animal id): 271	≤ 2
isolate (source animal id): 272	≤ 2
isolate (source animal id): 273	≤ 2
isolate (source animal id): 274	> 2
isolate (source animal id): 275	> 2
isolate (source animal id): 276	≤ 2
isolate (source animal id): 277	≤ 2
isolate (source animal id): 278	≤ 2
isolate (source animal id): 279	≤ 2
isolate (source animal id): 280	≤ 2
isolate (source animal id): 281	≤ 2
isolate (source animal id): 282	≤ 2
isolate (source animal id): 283	≤ 2
isolate (source animal id): 284	≤ 2
isolate (source animal id): 285	≤ 2
isolate (source animal id): 286	> 2
isolate (source animal id): 287	> 2
isolate (source animal id): 288	≤ 2
isolate (source animal id): 289	≤ 2
isolate (source animal id): 290	≤ 2
isolate (source animal id): 291	> 2
isolate (source animal id): 292	> 2
isolate (source animal id): 293	≤ 2
isolate (source animal id): 294	≤ 2
isolate (source animal id): 295	> 2
isolate (source animal id): 296	≤ 2
isolate (source animal id): 297	≤ 2
isolate (source animal id): 298	> 2
isolate (source animal id): 299	≤ 2
isolate (source animal id): 300	≤ 2
isolate (source animal id): 301	≤ 2
isolate (source animal id): 302	≤ 2
isolate (source animal id): 303	≤ 2
isolate (source animal id): 304	> 2
isolate (source animal id): 305	≤ 2
isolate (source animal id): 306	≤ 2
isolate (source animal id): 307	≤ 2
isolate (source animal id): 308	≤ 2
isolate (source animal id): 309	≤ 2
isolate (source animal id): 310	≤ 2
isolate (source animal id): 311	> 2
isolate (source animal id): 312	≤ 2
isolate (source animal id): 313	≤ 2
isolate (source animal id): 314	≤ 2
isolate (source animal id): 315	≤ 2
isolate (source animal id): 316	> 2
isolate (source animal id): 317	> 2
isolate (source animal id): 318	≤ 2
isolate (source animal id): 319	≤ 2
isolate (source animal id): 320	≤ 2
isolate (source animal id): 321	> 2
isolate (source animal id): 322	≤ 2
isolate (source animal id): 323	> 2
isolate (source animal id): 324	≤ 2
isolate (source animal id): 325	> 2
isolate (source animal id): 326	≤ 2
isolate (source animal id): 327	≤ 2
isolate (source animal id): 328	≤ 2
isolate (source animal id): 329	≤ 2
isolate (source animal id): 330	≤ 2
isolate (source animal id): 331	≤ 2
isolate (source animal id): 332	≤ 2
isolate (source animal id): 333	≤ 2
isolate (source animal id): 334	> 2
isolate (source animal id): 335	≤ 2
isolate (source animal id): 336	≤ 2
isolate (source animal id): 337	≤ 2
isolate (source animal id): 338	> 2
isolate (source animal id): 339	≤ 2
isolate (source animal id): 340	≤ 2
isolate (source animal id): 341	≤ 2
